From patent US5578570A, “Method of treating septic shock using thymosin β4” (The George Washington University Medical Center, priority 1994, dated 1996)

Key:
Format in all cases: in vivo
endotoxic mice = experiment: Survival of Swiss Webster mice following lethal endotoxin dose and Tβ4; conditions: for Survival (No. mice alive): Table VII, endotoxin 60 mg/kg + Tβ4 50 μg 3x i.p., immediately following, 2 and 4 hrs after endotoxin, 10 mice at 0 hrs
Protocol: Swiss-Webster mice 4-6 weeks of age (20-25 g) were housed 6 per cage. The mice were divided into 2 groups: endotoxic mice (endotoxin 60 mg/kg i.p. in acute treatment) and endotoxic mice treated with Tβ4, 5 minutes and 2, 4, 6, 8, 10, 12, 14, 16, 18, 20, 22, 24 hours post administration of the endotoxin. Survival was recorded 2 times a day for 7 days.
Swiss-Webster mice 4-6 weeks of age (20-25 g) were divided into groups as follows.
1. Mice treated with a lethal dose of endotoxin (60 mg/kg).
2. […]
3. […]
4. […]

cGMP = cGMP cerebellar levels in mice treated with lethal doses of endotoxin; conditions: endotoxin 60 mg/kg i.p. + Tβ4 0.8 mg/kg i.p.
Source text: (§1) The results presented in Tables III-V below show effects of Tβ4 respectively on mice cerebellar cGMP levels, blood serum TNF-α levels, and blood serum TNF-α and IL-1α levels.

TNF-α = experiment: Serum TNF-α levels in mice treated with lethal doses of endotoxin; conditions: for TNF-α (serum level): Table XIII, endotoxin 60 mg/kg + Tβ4 100 μg administered immediately after endotoxin
Source text: as §1
(§2) Using the same methods and materials as in examples 1-3, the effect which Tβ4 has on blood levels of IL-1α, TNF-α, PAG, Txβ2 and 6-keto-PGF1 α, which are pathological mediators of endotoxin induced lethality, was studied.

IL-1α = experiment: Serum IL-1α levels in mice treated with lethal dose of endotoxin; conditions: Table V; pretreatment (SOD 3.3 × 10^4 μ/kg, 30 minutes before endotoxin; Tβ4 100 μg/mice); blood collected 1 hr after endotoxin
Source text: as §1, §2

PAF = PAF blood levels in mice after lethal dose of endotoxin; conditions: endotoxin 60 mg/kg + Tβ4 100 μg administered simultaneously; for PAF (plasma levels): Table IX; for PAF (serum levels): Table XII
Source text: as §2

T × β2 = experiment: T×β2 plasma levels in mice after lethal dose of endotoxin; conditions: Table X, endotoxin 60 mg/kg + Tβ4 100 μg administered simultaneously
Source text: as §2

6-keto-PGF1α = 6-keto-PGF1α plasma levels in mice after lethal dose of endotoxin; conditions: Table XI, endotoxin 60 mg/kg + Tβ4 100 μg administered simultaneously
Source text: as §2

TNFα = TNFα levels in a septic shock model in rat; conditions: rats with septic shock + Tβ4 1 mg/rat × 3
Source text: (§3) Using a septic shock model in rats (Sprague-Dawley, male, 200-225 g each), the effect of thymosin β4 alone and together with antibiotics was studied. Peritonitis was induced in rats in the following way. A 1-cm incision was made into the peritoneal which exposed the cecum. A tight ligature was placed around the cecum with 4-0 suture distal to the insertion of the small bowel, forming an area of devitalized tissue while maintaining bowel continuity. A puncture wound was made with 16-gauge needle into the anti-mesenteric surface of the cecum and a small amount of fecal contents was expressed through the wound. The cecum was replaced into the peritoneal cavity, and the anterior peritoneal wall and skin were closed with surgical staples. Each animal was given a bolus of normal saline (15 ml/kg) for hydration and allowed to recover overnight.
(§4) The results presented in Tables XV to XVIII below show effects of Tβ4 respectively on rat cytokine levels, blood malonyldialdehyde levels, glutathione levels and arachidonic acid metabolic levels.

IL1 α = experiment: IL1α levels in a septic shock model in rat; conditions: rats with septic shock + Tβ4 1 mg/rat × 3
Source text: as §3, §4

malonyldialdehyde = experiment: Lipid peroxidation (blood malonyldialdehyde) in a septic shock model in rat; conditions: for Blood Levels of malonyldialdehyde: rats with septic shock + Tβ4 1 mg/rat × 3
Source text: as §3, §4

glutathione = experiment: Glutathione levels in a rat septic shock model; conditions: for RBC GSH: rats with septic shock + 1 mg/rat × 3
Source text: as §3, §4

6-keto-PGF1 = 6-keto-PGF1 levels in a septic shock model in rat; conditions: rats with septic shock + Tβ4 1 mg/rat × 3
Source text: as §3, §4

[1] = tested on: blood free radical levels; experiment: Blood free radical levels; conditions: compared with SOD
[2] = during sepsis, with Tβ4 administration

## Thymosin β4 [Tβ4]
Endotoxic mice; 48 hrs
  Survival (No. mice alive): 7
Endotoxic mice; 72 hrs
  Survival (No. mice alive): 7
Endotoxic mice; 96 hrs
  Survival (No. mice alive): 7
Endotoxic mice; 5 days
  Survival (No. mice alive): 7
Endotoxic mice; 6 days
  Survival (No. mice alive): 7
Endotoxic mice; Tβ4 administered 3 times post administration of endotoxin
  survival rate: 100%
Endotoxic mice; administered three times
  most effective protective dose: 100 µg
Endotoxic mice; administered three times in doses of 50 μg and 20 μg
  survival of mice treated with endotoxin (in words): partially increased the survival
Endotoxic mice; lethal endotoxin shock, endotoxin 60 mg/kg i.p., Example 1
  survival rate: ≤ 100%
cGMP
  Cerebellar cortex cyclic GMP: 12.1 ± 0.9 pmol per mg/protein
TNF-α; Table IV, endotoxin 60 mg/kg + Tβ4 100 μg, 1 hr
  Serum TNF-α: 823 ± 79 pg/mL
TNF-α; Table IV, endotoxin 60 mg/kg + Tβ4 100 μg, 3 hr
  Serum TNF-α: 535 ± 47 pg/mL
TNF-α; Table IV, endotoxin 60 mg/kg + Tβ4 100 μg, 5 hr
  Serum TNF-α: 480 ± 45 pg/mL
TNF-α; Table V, pretreatment (SOD 3.3 × 10^4 μ/kg, 30 minutes before endotoxin; Tβ4 100 μg/mice), blood collected 1 hr after endotoxin
  Serum TNF-α: 321 ± 26.2 pg/mL
TNF-α; 1 hr
  TNF-α (serum level): 807 pg/mL
TNF-α; 3 hr
  TNF-α (serum level): 591 pg/mL
TNF-α; 5 hr
  TNF-α (serum level): 496 pg/mL
IL-1α
  Serum IL-1α: 298 ± 20 pg/mL
PAF; 0.5 hr.
  PAF (plasma levels): 63 ± 7 pg/mL
PAF; 1 hr
  PAF (plasma levels): 161 ± 17 pg/mL
  PAF (serum levels): 807 pg/mL
PAF; 2 hr
  PAF (plasma levels): 66 ± 5 pg/mL
PAF; 3 hr
  PAF (plasma levels): 46 ± 5 pg/mL
  PAF (serum levels): 591 pg/mL
PAF; 5 hr
  PAF (serum levels): 496 pg/mL
T × β2; 0.5 hr.
  T × β2 (plasma levels): 209 ± 9,5 pg/ml
T × β2; 1 hr
  T × β2 (plasma levels): 607 ± 53 pg/mL
T × β2; 2 hr
  T × β2 (plasma levels): 196 ± 18 pg/mL
T × β2; 3 hr
  T × β2 (plasma levels): 112 ± 9 pg/mL
6-keto-PGF1α; 0.5 hr.
  6-keto-PGF1α (plasma levels): 141 ± 9 pg/mL
6-keto-PGF1α; 1 hr
  6-keto-PGF1α (plasma levels): 261 ± 23 pg/mL
6-keto-PGF1α; 2 hr
  6-keto-PGF1α (plasma levels): 147 ± 19 pg/mL
6-keto-PGF1α; 3 hr
  6-keto-PGF1α (plasma levels): 121 ± 13 pg/mL
TNFα
  TNFα: 1259 ± 138 pg/mL
IL1 α
  IL1 α: 853 ± 62 pg/mL
malonyldialdehyde; [2]
  peroxidation of lipids in blood (malonyldialdehyde), in words: returned to normal or about normal
malonyldialdehyde; first value column
  Blood Levels of malonyldialdehyde: 19.6 ± 1.7 nNol MDA
malonyldialdehyde; second value column
  Blood Levels of malonyldialdehyde: 16.8 ± 1.5 nNol MDA
glutathione; [2]
  circulating blood levels of glutathione (in words): returns circulatory gluthathine levels to normal or about normal
glutathione; first value column
  RBC GSH: 1.45 ± 0.11 μmoles/ml cells
glutathione; second value column
  RBC GSH: 1.39 ± 0.12 μmoles/ml cells
6-keto-PGF1
  6-keto-PGF1: 829 ± 59 pg/mL
[1]
  blood free radical levels (in words): reduce blood free radical levels almost as much as SOD
